For data set [1], the system named is HCV genotype 1b luciferase reporter replicon. Nature of the data set: HCV replicon assay, antiviral efficacy by luciferase reporter activity. The data set is classed as cell-based. As to the method:
(§1) Huh-7 luc/neo ET cells bearing a discistronic HCV genotype 1b luciferase reporter replicon were plated at 7.5×10^3 cells/mi in duplicate 96-well plates for the parallel determination of antiviral efficacy (EC50) and cytotoxicity (TC50). The plates were cultured for 24 hours prior to the addition of compounds. Six serial one half log dilutions of the test articles (high test concentration of 100.0 μM. or high test concentration of 1.0 μM) and human interferon-alpha2b (high test 10.0 U/ml) were prepared in cell culture medium and added to the cultured cells in triplicate wells for each dilution. Six wells in the test plates received medium alone as an untreated control. Following 72 hours of culture in the presence of compound, one of the plates was used for the determination of cytotoxicity by staining with STT and the other for antiviral efficacy by determination of luciferase reporter activity. Cytotoxicity and efficacy data were collected and imported into a customized Excel workbook for determination of the TC50 and EC50 values.
On the technique in general: In antiviral work, replicon cells carry a viral genome segment that copies itself.

Data set [2] is described as follows: Cytotoxicity in the replicon cells (staining with STT). It counts as cell-based. The settings on record: human, Huh-7 luc/neo ET cells, read-out: HCV Replicon CC50. How it is done:
as §1

Data set [3] has as its target HCV RNA-dependent RNA polymerase (Hepatitis C virus genotype 1a, UniProt P27958). The settings on record: Ivanov et al., Russian J. Bioorg. Chem. 2010; cited from earlier work.
The next data set relates to Huh-7 luc/neo ET cells. Put plainly: Cytotoxicity in the replicon cells (staining with STT). It counts as cell-based. The settings on record: 72 hours, read-out: HCV Replicon CC50. As to the method:
as §1

The target of a further data set is T1, adenosine deaminase (Homo sapiens, UniProt P00813).
T1 sequence (P00813 1-363): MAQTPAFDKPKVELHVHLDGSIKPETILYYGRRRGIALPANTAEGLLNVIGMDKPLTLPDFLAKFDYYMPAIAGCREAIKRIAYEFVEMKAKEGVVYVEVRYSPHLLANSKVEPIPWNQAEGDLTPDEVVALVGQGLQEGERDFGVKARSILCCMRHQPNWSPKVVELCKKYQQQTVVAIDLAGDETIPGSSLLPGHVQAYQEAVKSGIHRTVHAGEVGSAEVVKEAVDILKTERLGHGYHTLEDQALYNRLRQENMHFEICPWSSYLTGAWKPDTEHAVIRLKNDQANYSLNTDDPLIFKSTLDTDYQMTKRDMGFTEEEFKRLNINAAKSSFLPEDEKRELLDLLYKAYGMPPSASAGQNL
The conditions noted are these: over a long period (120 minutes); WO 2010/091386; cited from earlier work.

This is an account of results in patent US10711029B2, “Beta-d-2′-deoxy-2′-alpha-fluoro-2′-beta-c-substituted-4′fluoro-n6-substituted-6-amino-2-substituted purine nucleotides for the treatment of hepatitis c virus infection” (Atea Pharmaceuticals, Inc., priority 2016, dated 2020).

In general, CC50 refers to the concentration at which the toxic effect on the cells reaches its halfway point.

Some results are limits rather than exact numbers.

Sequence of HCV RNA-dependent RNA polymerase (P27958 2421-3011): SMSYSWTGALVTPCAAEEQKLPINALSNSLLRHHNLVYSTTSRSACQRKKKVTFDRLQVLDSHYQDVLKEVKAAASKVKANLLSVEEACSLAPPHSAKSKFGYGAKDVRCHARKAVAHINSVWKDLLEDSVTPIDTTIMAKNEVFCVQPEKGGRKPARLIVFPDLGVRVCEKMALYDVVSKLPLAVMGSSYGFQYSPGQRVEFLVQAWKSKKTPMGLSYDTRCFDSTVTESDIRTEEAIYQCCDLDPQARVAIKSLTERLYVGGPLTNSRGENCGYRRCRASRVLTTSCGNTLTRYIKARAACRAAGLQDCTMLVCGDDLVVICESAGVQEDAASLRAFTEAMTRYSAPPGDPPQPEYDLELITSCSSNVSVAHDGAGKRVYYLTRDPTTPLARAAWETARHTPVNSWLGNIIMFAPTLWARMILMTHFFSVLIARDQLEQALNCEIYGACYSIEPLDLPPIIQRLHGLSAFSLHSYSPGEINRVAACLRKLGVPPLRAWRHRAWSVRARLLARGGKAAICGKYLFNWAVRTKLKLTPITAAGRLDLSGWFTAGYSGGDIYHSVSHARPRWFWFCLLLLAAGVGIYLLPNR

`CC(C)OC(=O)[C@H](C)NP(=O)(OC[C@@]1(F)O[C@@H](n2cnc3c(N4CCCC4)nc(N)nc32)[C@](C)(F)C1O)Oc1ccccc1` (stereo partly drawn) [Cmpd 12]: the “Fold increase in activity compared to parent nucleoside” value (shortened to “Fold increase in activity”) in data set [1] was more than 31.3. The CC50 at 72 h in data set [2] was more than 10 µM. For `CCN(C)c1nc(N)nc2c1ncn2[C@@H]1O[C@](F)(CO)C(O)[C@@]1(C)F` (stereo partly drawn) [Cmpd 13], the CC50 at 72 h in data set [2] was more than 100 µM. Turning to `CC(C)OC(=O)[C@H](C)NP(=O)(OC[C@@]1(F)O[C@@H](n2cnc3c(N(C)C)nc(N)nc32)[C@](C)(F)C1O)Oc1ccccc1` (stereo partly drawn) [Cmpd 2], the “Fold increase in activity” value in data set [1] is 2,941. In data set [2], the CC50 at 72 h is more than 10 µM.

Turning to `CNc1nc(N)nc2c1ncn2[C@@H]1O[C@](F)(CO)C(O)[C@@]1(C)F` (stereo partly drawn) [Cmpd 5], the CC50 at 72 h in data set [2] was more than 100 µM.

In the case of `CNc1nc(F)nc2c1ncn2[C@@H]1O[C@](F)(CO[P@@](=O)(N[C@@H](C)C(=O)OC(C)C)Oc2ccccc2)C(O)[C@@]1(C)F` (stereo partly drawn) [Cmpd 17], the “Fold increase in activity” value in data set [1] is reported as 4.3. Also, in data set [2], the CC50 at 72 h was more than 50 µM.

For the compound `CC(C)OC(=O)[C@H](C)N[P@](=O)(OC[C@@]1(F)O[C@@H](n2cnc3c(N(C)C)nc(F)nc32)[C@](C)(F)[C@@H]1O)Oc1ccccc1` [Cmpd 8], the “Fold increase in activity” value in data set [1] was 2521. The CC50 at 72 h in data set [2] stood at 35.3 µM. On the same counts, the results for `CNc1nc(N)nc2c1ncn2[C@@H]1O[C@](F)(COP(=O)(N[C@@H](C)C(=O)OC(C)C)Oc2ccccc2)C(O)[C@@]1(C)F` (stereo partly drawn) [Cmpd 6] are 10,000 and more than 10 µM. The like results for `CCN(C)c1nc(N)nc2c1ncn2[C@@H]1O[C@](F)(COP(=O)(N[C@@H](C)C(=O)OC(C)C)Oc2ccccc2)C(O)[C@@]1(C)F` (stereo partly drawn) [Cmpd 14] were, in that order, 434 and more than 10 µM. As to `O=c1ccn([C@@H]2O[C@](F)(COP(=O)(O)OP(=O)(O)OP(=O)(O)O)[C@@H](O)[C@H]2O)c(=O)[nH]1` [4′fluorouridine 5′-O-triphosphate], in data set [3], the “inhibition of HCV RNA-dependent RNA polymerase” value is “effective inhibitor”. `CC(C)OC(=O)[C@H](C)NP(=O)(OC[C@@]1(F)O[C@@H](n2cnc3c(N(C)C4CC4)nc(N)nc32)[C@](C)(F)C1O)Oc1ccccc1` (stereo partly drawn) [Cmpd 15]: in data set [1], the “Fold increase in activity” value worked out at 3332. Moreover, the CC50 in the data set with Huh-7 luc/neo ET cells was more than 50 µM.

In the case of `CC(C)OC(=O)[C@H](C)NP(=O)(OC[C@@]1(F)O[C@@H](n2cnc3c(N(C)C4CC4)nc(N)nc32)[C@](C)(F)C1O)Oc1ccccc1` (stereo partly drawn) [Cmpd 4], the “Fold increase in activity” value in data set [1] stood at 667. For the same compound, in the data set with Huh-7 luc/neo ET cells, the CC50 was more than 10 µM. With `CNc1nc(F)nc2c1ncn2[C@@H]1O[C@](F)(CO[P@@](=O)(N[C@@H](C)C(=O)OC(C)C)Oc2ccccc2)[C@@H](O)[C@@]1(C)F` [Cmpd 10], the “Fold increase in activity” value in data set [1] turned out to be 4.7. For the same compound, the CC50 at 72 h in data set [2] turned out to be 54 µM.

As for `CC(C)OC(=O)[C@H](C)N[P@](=O)(OC[C@@]1(F)O[C@@H](n2cnc3c(N(C)C)nc(N)nc32)[C@](C)(F)C1O)Oc1ccccc1` (stereo partly drawn) [Cmpd 16], the “Fold increase in activity” value in data set [1] was determined as 40. Besides, the 50% cytotoxic concentration (CC50) at 72 h in data set [2] was more than 50 µM.

In the case of `CN(C)c1nc(N)nc2c1ncn2[C@@H]1O[C@](F)(CO)C(O)[C@@]1(C)F` (stereo partly drawn) [Cmpd 1], the CC50 at 72 h in data set [2] is more than 100 µM. Still for that read-out and setting: the value for `C[C@@]1(F)C(O)[C@@](F)(CO)O[C@H]1n1cnc2c(N3CCCC3)nc(N)nc21` (stereo partly drawn) [Cmpd 11] was more than 100 µM. As for `CN(C)c1nc(N)nc2[nH]cnc12` [N^6-dimethyl-2,6-diaminopurine], the “deamination by adenosine deaminase” value on adenosine deaminase is “not substantially deaminated”. Take `CN(c1nc(N)nc2c1ncn2[C@@H]1O[C@](F)(CO)C(O)[C@@]1(C)F)C1CC1` (stereo partly drawn) [Cmpd 3]: the CC50 at 72 h in data set [2] was more than 100 µM.
